Where “and” joins values, the source holds several entries; their conditions need not be identical. Equal entries are not always repeated. Inconclusive results and toxic doses are left out.
System: P388 leukemia ip, CD2F1 mice, survival T/C
Test: NCI In Vivo Anticancer Drug Screen. Data for tumor model P388 Leukemia (intraperitoneal) in CD2F1 (CDF1) mice
Conditions: endpoint: median survival time, higher = longer survival
In short: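 Mice carrying the transplanted tumor received test compound or vehicle. Survival was recorded in each group, and the value is the treated-group measurement divided by that of the vehicle-treated control group.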

[1] = dose: 200.0 mg/kg/injection, schedule: Q01DX009 (ip), vehicle: saline with Tween-80
[2] = dose: 400.0 mg/kg/injection, schedule: Q01DX009 (ip), vehicle: saline with Tween-80
[3] = dose: 400.0 mg/kg/injection, schedule: Q04DX003 (ip), vehicle: saline with Tween-80
[4] = dose: 50.0 mg/kg/injection, schedule: Q01DX009 (ip), vehicle: saline
[5] = dose: 100.0 mg/kg/injection, schedule: Q01DX009 (ip), vehicle: saline
[6] = dose: 200.0 mg/kg/injection, schedule: Q01DX009 (ip), vehicle: saline
[7] = dose: 50.0 mg/kg/injection, schedule: Q01DX009 (ip), vehicle: saline with Tween-80
[8] = dose: 100.0 mg/kg/injection, schedule: Q01DX009 (ip), vehicle: saline with Tween-80
[9] = dose: 50.0 mg/kg/injection, schedule: Q01DX005 (ip), vehicle: saline with Tween-80
[10] = dose: 100.0 mg/kg/injection, schedule: Q01DX005 (ip), vehicle: saline with Tween-80
[11] = dose: 200.0 mg/kg/injection, schedule: Q01DX005 (ip), vehicle: saline with Tween-80
[12] = dose: 60.0 mg/kg/injection, schedule: Q01DX005 (ip), vehicle: saline with Tween-80
[13] = dose: 120.0 mg/kg/injection, schedule: Q01DX005 (ip), vehicle: saline with Tween-80
[14] = dose: 100.0 mg/kg/injection, schedule: Q04DX003 (ip), vehicle: Klucel (hydroxypropylcellulose) (HPC)
[15] = dose: 200.0 mg/kg/injection, schedule: Q04DX003 (ip), vehicle: Klucel (hydroxypropylcellulose) (HPC)
[16] = dose: 400.0 mg/kg/injection, schedule: Q04DX003 (ip), vehicle: Klucel (hydroxypropylcellulose) (HPC)
[17] = dose: 50.0 mg/kg/injection, schedule: Q01DX009 (ip), vehicle: Klucel (hydroxypropylcellulose) (HPC)
[18] = dose: 100.0 mg/kg/injection, schedule: Q01DX009 (ip), vehicle: Klucel (hydroxypropylcellulose) (HPC)
[19] = dose: 200.0 mg/kg/injection, schedule: Q01DX009 (ip), vehicle: Klucel (hydroxypropylcellulose) (HPC)
[20] = dose: 30.0 mg/kg/injection, schedule: Q01DX005 (ip), vehicle: saline with Tween-80

## C[C@H]1C[C@@H]2[C@H]([C@@H](O)C[C@@]3(C)[C@H]2CC[C@]3(O)C(=O)CF)[C@@]2(C)C=CC(=O)C=C12
dose: 10.0 mg/kg/injection, schedule: Q01DX009 (ip), vehicle: saline with Tween-80
  T/C: 104 % of control
dose: 100.0 mg/kg/injection, schedule: Q04DX003 (ip), vehicle: saline with Tween-80
  T/C: 100 % of control
[1]
  T/C: 95 % of control
dose: 200.0 mg/kg/injection, schedule: Q04DX003 (ip), vehicle: saline with Tween-80
  T/C: 100 % of control
[2]
  T/C: 86 % of control
[3]
  T/C: 100 % of control

## C[N+](C)(C)CCCSc1nc2ccccc2[nH]1
dose: 0.13 mg/kg/injection, schedule: Q01DX009 (ip), vehicle: saline
  T/C: 95 % of control
dose: 0.25 mg/kg/injection, schedule: Q01DX009 (ip), vehicle: saline
  T/C: 103 % of control
dose: 0.5 mg/kg/injection, schedule: Q01DX009 (ip), vehicle: saline
  T/C: 103 % of control
dose: 1.0 mg/kg/injection, schedule: Q01DX009 (ip), vehicle: saline
  T/C: 104 % of control

## CCOC(=O)CNC(=O)Nc1c(C)n(C)n(-c2ccccc2)c1=O
[4]
  T/C: 103 % of control
[5]
  T/C: 100 % of control
[6]
  T/C: 97 % of control

## OCCN1OCCCC1c1ccccc1 (stereo not given)
[7]
  T/C: 94 % of control
[8]
  T/C: 92 % of control

## CCOP(=S)(N/N=C/c1ccc(Br)s1)OCC
dose: 50.0 mg/kg/injection, schedule: Q01DX005 (ip), vehicle: Klucel (hydroxypropylcellulose) (HPC)
  T/C: 101 % of control
dose: 100.0 mg/kg/injection, schedule: Q01DX005 (ip), vehicle: Klucel (hydroxypropylcellulose) (HPC)
  T/C: 106 % of control
dose: 200.0 mg/kg/injection, schedule: Q01DX005 (ip), vehicle: Klucel (hydroxypropylcellulose) (HPC)
  T/C: 104 % of control

## CCN(CCNc1ccc(CO)c2sc3ccccc3c(=O)c12)CC(C)(C)O
dose: 265.0 mg/kg/injection, schedule: Q04DX003 (ip), vehicle: saline with Tween-80
  T/C: 123 % of control
[3]
  T/C: 159 % of control
dose: 600.0 mg/kg/injection, schedule: Q04DX003 (ip), vehicle: saline with Tween-80
  T/C: 185 % of control

## CCCCOC1=NC2C(=O)NCC2CO1 (stereo not given)
[9]
  T/C: 97 % of control
[10]
  T/C: 94 % of control
[11]
  T/C: 97 % of control

## COc1ccc(CNCC#N)c(OC)c1
[9]
  T/C: 97 % of control
[10]
  T/C: 100 % of control

## COc1cc(NC(=O)SC2=NCCS2)cc(OC)c1
[7]
  T/C: 107 % of control
[8]
  T/C: 110 % of control
[1]
  T/C: 100 % of control

## O=C(O)C1=CC2C=C(Cl)C=CC2OC1=O (stereo not given)
[12]
  T/C: 100 % of control
[13]
  T/C: 100 % of control

## O=S(=O)(F)c1ccc2nc(-c3cccc(Sc4ccccc4)c3)cc(Cl)c2c1
[8]
  T/C: 100 % of control
[1]
  T/C: 95 % of control
[2]
  T/C: 95 % of control

## COc1cccc(-n2c(SC)nccc2=O)c1
[14]
  T/C: 100 % of control
[15]
  T/C: 101 % of control
[16]
  T/C: 100 % of control

## BrC1=NOC2c3cccc4cccc(c34)C12 (stereo not given)
[12]
  T/C: 108 % of control
[13]
  T/C: 106 % of control
dose: 240.0 mg/kg/injection, schedule: Q01DX005 (ip), vehicle: saline with Tween-80
  T/C: 105 % of control

## CSc1nc2nc[nH]c2c(=O)[nH]1
dose: 12.5 mg/kg/injection, schedule: Q01DX005 (ip), vehicle: saline with Tween-80
  T/C: 100 % of control
dose: 25.0 mg/kg/injection, schedule: Q01DX005 (ip), vehicle: saline with Tween-80
  T/C: 100 % of control
[9]
  T/C: 101 % of control and 105 % of control
[10]
  T/C: 101 % of control
[11]
  T/C: 104 % of control

## C/C(=N\N1CN(C(C)C(=O)O)P(N(CCO)CCO)N=C1N)c1cccs1 (stereo not given)
dose: 7.5 mg/kg/injection, schedule: Q01DX005 (ip), vehicle: saline
  T/C: 98 % of control
dose: 15.0 mg/kg/injection, schedule: Q01DX005 (ip), vehicle: saline
  T/C: 101 % of control
dose: 30.0 mg/kg/injection, schedule: Q01DX005 (ip), vehicle: saline
  T/C: 98 % of control

## CCCCN=C(N=C(NC(=O)c1ccccc1)c1ccccc1)c1ccccc1
[7]
  T/C: 90 % of control
[8]
  T/C: 89 % of control
[1]
  T/C: 93 % of control

## O=C(NC(Cc1ccc(F)cc1)C(=O)O)c1ccccc1 (stereo not given)
dose: 25.0 mg/kg/injection, schedule: Q01DX009 (ip), vehicle: other
  T/C: 113 % of control
dose: 50.0 mg/kg/injection, schedule: Q01DX009 (ip), vehicle: other
  T/C: 115 % of control
dose: 100.0 mg/kg/injection, schedule: Q01DX009 (ip), vehicle: other
  T/C: 110 % of control

## O=[N+]([O-])c1ccccc1SSc1ccccc1[N+](=O)[O-]
[8]
  T/C: 95 % of control
[1]
  T/C: 104 % of control
[2]
  T/C: 100 % of control

## CCCCCCCCCCCCNc1ccc(Cl)cc1
[17]
  T/C: 117 % of control and 123 % of control
[18]
  T/C: 103 % of control and 113 % of control
[19]
  T/C: 117 % of control

## Cc1ccc(S(=O)(=O)N/N=C2\COC(C)C2)cc1 (stereo not given)
[9]
  T/C: 93 % of control
[10]
  T/C: 91 % of control

## CC(C)(OCc1ccccc1)c1ccccc1P(c1ccccc1)c1ccccc1
[17]
  T/C: 101 % of control
[18]
  T/C: 101 % of control
[19]
  T/C: 110 % of control

## C/C(=N\O)C1CC2C=C(C#N)C1N(Cc1ccccc1)C2 (stereo not given)
dose: 8.75 mg/kg/injection, schedule: Q01DX005 (ip), vehicle: Klucel (hydroxypropylcellulose) (HPC)
  T/C: 96 % of control
dose: 17.5 mg/kg/injection, schedule: Q01DX005 (ip), vehicle: Klucel (hydroxypropylcellulose) (HPC)
  T/C: 93 % of control
dose: 35.0 mg/kg/injection, schedule: Q01DX005 (ip), vehicle: Klucel (hydroxypropylcellulose) (HPC)
  T/C: 123 % of control

## CC(=O)NC(C)CC1=CC(=O)C(C)=CC1=O (stereo not given)
dose: 25.0 mg/kg/injection, schedule: Q01DX001 (ip), vehicle: Klucel (hydroxypropylcellulose) (HPC)
  T/C: 95 % of control

## OCCN(CCO)CC(O)COc1cccc2ccccc12 (stereo not given)
dose: 12.5 mg/kg/injection, schedule: Q01DX009 (ip), vehicle: saline
  T/C: 98 % of control and 116 % of control
dose: 25.0 mg/kg/injection, schedule: Q01DX009 (ip), vehicle: saline
  T/C: 110 % of control and 96 % of control
[4]
  T/C: 103 % of control and 107 % of control
[5]
  T/C: 104 % of control and 97 % of control
[6]
  T/C: 110 % of control and 115 % of control

## OC1c2ccccc2OC2(N3CCCC3)CCCCC12 (stereo not given)
[7]
  T/C: 98 % of control
[8]
  T/C: 94 % of control
[1]
  T/C: 91 % of control

## CCCCCCN(CCCCCC)CC(O)c1cc(-c2ccccc2)nc2ccccc12 (stereo not given)
[9]
  T/C: 100 % of control
[10]
  T/C: 103 % of control
[11]
  T/C: 105 % of control

## Cc1ccc(C(=O)[Se][Se]C(=O)c2ccc(C)cc2)cc1
dose: 6.25 mg/kg/injection, schedule: Q01DX009 (ip), vehicle: saline with Tween-80
  T/C: 98 % of control
dose: 12.5 mg/kg/injection, schedule: Q01DX009 (ip), vehicle: saline with Tween-80
  T/C: 117 % of control
dose: 25.0 mg/kg/injection, schedule: Q01DX009 (ip), vehicle: saline with Tween-80
  T/C: 104 % of control and 112 % of control

## CCNC(=O)n1cccc(OC)c1=O
[4]
  T/C: 101 % of control and 107 % of control
[5]
  T/C: 109 % of control and 114 % of control and 119 % of control
[6]
  T/C: 111 % of control and 116 % of control
dose: 300.0 mg/kg/injection, schedule: Q01DX009 (ip), vehicle: saline
  T/C: 109 % of control

## CC(/C=C/c1ccc(Cl)cc1)=N\NC(N)=S
dose: 7.5 mg/kg/injection, schedule: Q01DX005 (ip), vehicle: saline with Tween-80
  T/C: 100 % of control
dose: 15.0 mg/kg/injection, schedule: Q01DX005 (ip), vehicle: saline with Tween-80
  T/C: 120 % of control
[20]
  T/C: 124 % of control

## CC(CC(O)C(=O)O)CC(C)(C)C (stereo not given)
[9]
  T/C: 95 % of control
[10]
  T/C: 96 % of control
[11]
  T/C: 101 % of control

## Fc1ccc(F)c(C(Nc2nncs2)Nc2nncs2)c1
[20]
  T/C: 110 % of control
[12]
  T/C: 108 % of control and 119 % of control

## O=c1c(=O)c2cc(O)ccc12
[9]
  T/C: 109 % of control
[10]
  T/C: 105 % of control
[11]
  T/C: 100 % of control

## CC(C)=NNC(N)=S
dose: 12.5 mg/kg/injection, schedule: Q04DX003 (ip), vehicle: Klucel (hydroxypropylcellulose) (HPC)
  T/C: 93 % of control
dose: 25.0 mg/kg/injection, schedule: Q04DX003 (ip), vehicle: Klucel (hydroxypropylcellulose) (HPC)
  T/C: 100 % of control

## O=C(O)c1ccccc1C(=O)OCc1ccccc1
[14]
  T/C: 100 % of control
[15]
  T/C: 100 % of control
[16]
  T/C: 97 % of control

## C=C1CC(C)OC1=O (stereo not given)
dose: 100.0 mg/kg/injection, schedule: Q04DX002 (ip), vehicle: saline with Tween-80
  T/C: 103 % of control
dose: 200.0 mg/kg/injection, schedule: Q04DX002 (ip), vehicle: saline with Tween-80
  T/C: 111 % of control

From PubChem BioAssay AID330 (DTP/NCI, 2004)
